From PubChem BioAssay (NCI) come the findings set out here.

SMILES strings stand for the structures.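 1) Cells in 96-well plates. 2) Compound, 48 h, 5 concentrations. 3) Linear interpolation between surrounding doses. 4) Unreached endpoint = highest concentration. Here, GI50 denotes the concentration required for 50% inhibition of growth. TGI is the concentration that stops growth completely.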

Among the test systems are A549 NSCLC; COLO 205 colon; HT29 colon; KM12 colon; MOLT-4 leukemia; NCI/ADR-RES ovarian; OVCAR-5 ovarian; U251 CNS; UACC-257 melanoma; HOP-92 NSCLC.
What all share (assay): inhibition of tumour cell growth, NCI panel, 48 h

For the compound `COc1cc([N+](=O)[O-])ccc1NC(=O)C(F)(F)F`, the TGI in the test with A549 NSCLC, with COLO 205 colon, in the test with HT29 colon, in the test with KM12 colon, in the test with MOLT-4 leukemia and with NCI/ADR-RES ovarian was over 100 µM each time. The TGI in the test with OVCAR-5 ovarian, in the test on U251 CNS and in the test on UACC-257 melanoma was over 100 µM throughout.
Take `C[C@]12CC[C@@H]3c4ccc(Oc5nc(N6CC6)nc(N6CC6)n5)cc4CC[C@H]3[C@@H]1CCC2=O`: the GI50 is 1.5 µM in the test on A549 NSCLC; 3.35 µM in the test with COLO 205 colon; 4.39 µM with HT29 colon; 5.5 µM in the test on KM12 colon; 0.747 µM in the test on MOLT-4 leukemia; 4.6 µM in the test on NCI/ADR-RES ovarian. In addition, the figures for the GI50 with OVCAR-5 ovarian, with U251 CNS and in the test with UACC-257 melanoma were 12.1 µM, 2 µM and 2.89 µM, respectively. The TGI in the test with A549 NSCLC came to 12.8 µM; in the test with COLO 205 colon, 16.2 µM; with HT29 colon, 19.4 µM; in the test with KM12 colon it was 20 µM; with MOLT-4 leukemia it was 4.97 µM; in the test with NCI/ADR-RES ovarian it was 33.2 µM. Moreover, the TGI in the test with OVCAR-5 ovarian turned out to be 30.2 µM; with U251 CNS it was 11.7 µM; in the test on UACC-257 melanoma, 17.5 µM.
As to `O=C(O)c1cc(N=Nc2ccc([As](=O)(O)O)cc2)ccc1O`, the TGI in the test with A549 NSCLC, with COLO 205 colon, in the test with HT29 colon, with KM12 colon, in the test on MOLT-4 leukemia and in the test on NCI/ADR-RES ovarian was over 100 µM throughout. Moreover, the TGI in the test on OVCAR-5 ovarian, in the test on U251 CNS and in the test with UACC-257 melanoma was over 100 µM each time.
For the compound `CC(C)(C)OC(=O)N(CCCN(CCn1c2c(c3ccccc3c1=O)C(=O)c1ccccc1-2)C(=O)OC(C)(C)C)CCn1c2c(c3ccccc3c1=O)C(=O)c1ccccc1-2`, the GI50 is over 50 µM in the test with A549 NSCLC; over 50 µM in the test with COLO 205 colon; over 50 µM with HT29 colon; over 50 µM in the test with KM12 colon; 6.46 µM in the test on MOLT-4 leukemia; over 50 µM in the test with NCI/ADR-RES ovarian. For the same compound, the figures for the GI50 in the test on OVCAR-5 ovarian, with U251 CNS and in the test on UACC-257 melanoma were over 50 µM, 15.2 µM and over 50 µM, respectively. The TGI in the test with A549 NSCLC is over 50 µM; in the test with COLO 205 colon it was over 50 µM; with HT29 colon, over 50 µM; in the test on KM12 colon, over 50 µM; in the test on MOLT-4 leukemia it was 16 µM; in the test with NCI/ADR-RES ovarian, over 50 µM. For the same compound, the TGI in the test on OVCAR-5 ovarian, in the test with U251 CNS and in the test on UACC-257 melanoma was over 50 µM each time.
Take `Cn1cc(C2=C(c3cn(CCCN=C(N)N)c4ccccc34)C(=O)NC2=O)c2ccccc21`: the GI50 was over 25 µM in the test on A549 NSCLC; 9.76 µM in the test on COLO 205 colon; over 25 µM in the test with HT29 colon; over 25 µM in the test on KM12 colon; over 25 µM in the test with MOLT-4 leukemia; over 25 µM in the test with NCI/ADR-RES ovarian. Moreover, the GI50 in the test with OVCAR-5 ovarian, with U251 CNS and in the test with UACC-257 melanoma was over 25 µM throughout. The TGI with A549 NSCLC, in the test on COLO 205 colon, with HT29 colon, in the test on KM12 colon, in the test on MOLT-4 leukemia and in the test on NCI/ADR-RES ovarian was over 25 µM throughout. For the same compound, the TGI with OVCAR-5 ovarian, in the test with U251 CNS and in the test with UACC-257 melanoma was over 25 µM throughout.
For the compound `Cc1ccc(C(=O)/C=C/c2ccccc2O)c(C)c1`, the TGI in the test with A549 NSCLC was over 100 µM; in the test with COLO 205 colon, over 100 µM; with HOP-92 NSCLC, over 100 µM; with HT29 colon, 8.42 µM; in the test with KM12 colon it was over 100 µM; with MOLT-4 leukemia, over 100 µM. Further, the TGI in the test on OVCAR-5 ovarian, in the test with U251 CNS and in the test with UACC-257 melanoma was over 100 µM each time.
As for `Cn1cc(C2=C(c3cn(C)c4c(N)cccc34)C(=O)NC2=O)c2ccccc21`, the GI50 was 1.39 µM in the test with A549 NSCLC; 1.99 µM with COLO 205 colon; 1.25 µM in the test with HT29 colon; 0.968 µM in the test with KM12 colon; 3.35 µM in the test with MOLT-4 leukemia; 2.02 µM in the test on NCI/ADR-RES ovarian. In addition, the GI50 was 6.41 µM in the test with OVCAR-5 ovarian, 1.19 µM in the test with U251 CNS and 4.76 µM in the test on UACC-257 melanoma. Also, the TGI in the test on A549 NSCLC was over 25 µM; in the test with COLO 205 colon it was 9.96 µM; with HT29 colon, 12.8 µM; in the test on KM12 colon, 12.1 µM; with MOLT-4 leukemia, 21.6 µM; with NCI/ADR-RES ovarian, over 25 µM. In addition, the values for the TGI with OVCAR-5 ovarian, with U251 CNS and with UACC-257 melanoma were over 22.1 µM, over 19.2 µM and over 25 µM, respectively.
`Cc1cc(NS(=O)(=O)c2ccc(NC(=O)c3cccc4c(=O)c5ccccc5[nH]c34)cc2)no1`: the TGI in the test on A549 NSCLC, in the test with COLO 205 colon, in the test on HOP-92 NSCLC, in the test with HT29 colon, in the test with KM12 colon and in the test with MOLT-4 leukemia was over 100 µM in each case. For the same compound, the TGI with OVCAR-5 ovarian, with U251 CNS and in the test on UACC-257 melanoma was over 100 µM each time.
On to `COc1cc(-c2c(C#N)c(N)n3c(nc4ccccc43)c2C#N)cc(Br)c1OC`, for which the GI50 with COLO 205 colon is over 100 µM; in the test with MOLT-4 leukemia, over 100 µM; in the test with NCI/ADR-RES ovarian, over 100 µM; with OVCAR-5 ovarian, over 100 µM; with U251 CNS, 4.47 µM; in the test with UACC-257 melanoma it was over 100 µM. Moreover, the TGI with COLO 205 colon, in the test on MOLT-4 leukemia, in the test on NCI/ADR-RES ovarian, in the test with OVCAR-5 ovarian, in the test on U251 CNS and in the test with UACC-257 melanoma was over 100 µM each time.
For the compound `COc1ccc(OC)c(/C=C/NC=O)c1`, the TGI with A549 NSCLC, with COLO 205 colon, in the test on HOP-92 NSCLC, in the test on HT29 colon, in the test on KM12 colon and with MOLT-4 leukemia was over 100 µM throughout. For the same compound, the TGI in the test on OVCAR-5 ovarian, in the test on U251 CNS and with UACC-257 melanoma was over 100 µM in each case.
Regarding `CCN(CC)C(=O)C/C(C)=N/NC(=O)c1ccncc1`, the TGI with A549 NSCLC, in the test on COLO 205 colon, in the test on HOP-92 NSCLC, in the test with HT29 colon, with KM12 colon and with MOLT-4 leukemia was over 100 µM in each case. In addition, the TGI with OVCAR-5 ovarian, in the test with U251 CNS and in the test on UACC-257 melanoma was over 100 µM throughout.
Consider `Cc1ccc(N=NC(C(=O)c2ccccc2)C(=O)c2ccccc2)cc1`, for which the TGI in the test on A549 NSCLC is over 100 µM; with COLO 205 colon, 52.4 µM; with HOP-92 NSCLC, 41.5 µM; in the test with HT29 colon, 62.2 µM; in the test on KM12 colon, over 100 µM; in the test with MOLT-4 leukemia, 63 µM. Further, the TGI with OVCAR-5 ovarian is 58 µM; with U251 CNS, over 100 µM; with UACC-257 melanoma it was over 100 µM.
Consider `COC(=O)C(=O)C(C(=O)C=C(C)C)C(=O)C(=O)Nc1ccc(Cl)cc1C` (configuration not stated), for which the TGI in the test on A549 NSCLC, in the test with COLO 205 colon, in the test with HOP-92 NSCLC, with HT29 colon, in the test on KM12 colon and in the test on MOLT-4 leukemia was over 100 µM each time. The TGI in the test on OVCAR-5 ovarian, in the test on U251 CNS and in the test with UACC-257 melanoma was over 100 µM throughout.
As to `O=C(C[C@@H](C(=O)NCc1cccc(C(F)(F)F)c1)N1C(=O)[C@@H](N2C(=O)OC[C@@H]2c2ccccc2)[C@H]1/C=C/c1ccccc1)NC1CCN(Cc2ccccc2)CC1`, the GI50 is 5.86 µM with A549 NSCLC; 2.48 µM in the test with COLO 205 colon; 1.67 µM with HT29 colon; 3.93 µM in the test on KM12 colon; 1.59 µM in the test on MOLT-4 leukemia; over 100 µM in the test on NCI/ADR-RES ovarian. Moreover, the GI50 in the test on OVCAR-5 ovarian was 13 µM; with U251 CNS it was 4.58 µM; with UACC-257 melanoma it was 17.2 µM. Moreover, the TGI in the test on A549 NSCLC is 21.4 µM; in the test with COLO 205 colon it was 7.12 µM; in the test with HT29 colon, 3.53 µM; with KM12 colon, 16.7 µM; in the test with MOLT-4 leukemia it was 6.79 µM; in the test on NCI/ADR-RES ovarian, over 100 µM. Further, the TGI amounted to 29.9 µM with OVCAR-5 ovarian, 17.2 µM in the test on U251 CNS and 33.8 µM in the test with UACC-257 melanoma.
As to `CC(=O)SCCC1c2[nH]c3ccccc3c2CCN1O` (configuration not stated), the TGI in the test with A549 NSCLC, in the test with COLO 205 colon, with HOP-92 NSCLC, in the test with HT29 colon, in the test with KM12 colon and in the test on MOLT-4 leukemia was over 100 µM throughout. For the same compound, the TGI in the test on OVCAR-5 ovarian, in the test with U251 CNS and in the test on UACC-257 melanoma was over 100 µM in each case.
As to `COC(=O)C1=C(c2ccc3c(c2)OCO3)O[C@H](c2ccc3c(c2)OCO3)[C@H]1COC(C)=O`, the TGI was over 100 µM with A549 NSCLC; 28.9 µM in the test with COLO 205 colon; over 100 µM in the test with HOP-92 NSCLC; over 100 µM in the test on HT29 colon; over 100 µM in the test on KM12 colon; over 100 µM in the test with MOLT-4 leukemia. Besides, the TGI in the test on OVCAR-5 ovarian, in the test with U251 CNS and in the test on UACC-257 melanoma was over 100 µM in each case.
